A short description of experiment [1]: Dog model for diabetes, ventricular elasticity. It counts as in vivo. The source says:
(§1) Cardiovascular risk correlates more closely with the systolic and the pulse pressure than with the diastolic pressure. In diabetic patients, the cardiovascular risk profile of diabetic patients is strongly correlated to duration of diabetes, glycemic control and blood pressure. Structural matrix proteins contribute to the function of vessels and the heart, and changes in the physical behavior of cardiovascular walls are believed to be important determinants of circulatory function. In elderly individuals, the loss of compliance in the aorta leads to isolated systolic hypertension, which in turn expands the arterial wall and thereby diminishes the dynamic range of elasticity. Loss of compliance also results in the development of left ventricular hypertrophy.

The nature of experiment [2]: In vivo studies of vascular stiffening in rodents, canines and primates.
Source text: as §1

A further experiment in a line: Phase IIa clinical trial. It counts as in vivo, human. The source says: When the heart pumps blood into the vascular system, the ability of the arteries to expand helps to push blood through the body. When arteries become stiff, as they do in the natural process of aging, the ability of the arteries to expand is diminished and also has consequences for the heart. The heart has to work harder to pump the blood into the stiff arteries, and eventually hypertrophies (enlarges in size) to accomplish this. A hypertrophied heart is an inefficient pump, and is one of the disorders that leads to congestive heart failure. […] The potential clinical benefit of this is to lessen the effort that the heart must expend to push blood throughout the body. The effect is also believed to contribute to preventing hypertrophy and subsequent inefficiency of the heart, which inefficiency would contribute to congestive heart failure.
Atherosclerosis is a disease that involves deposition of blood lipids in plaque in the arteries throughout the body. In coronary arteries, accumulation of plaque progressively leads to reduced coronary flow, with occlusion of the arteries causing focal death of cardiac tissue (myocardial infarction, heart attack). If the amount of tissue that dies is large enough, death ensures. […] Reducing local deposits of plaque should eventually lessen the risk of myocardial infarction and death due to heart attacks.
Pulse pressure is the difference between systolic and diastolic blood pressure. In a young human, systolic pressure is typically 120 mm Hg and diastolic pressure is 80 mm Hg, resulting in a pulse pressure of 40 mm Hg. With age, in many individuals pulse pressure increases, largely due to the increase in systolic pressure that results from stiff vessel disease. In individuals with pulse pressure greater than 60 mm Hg there is an increased risk of death from cardiovascular morbidities.

Experiment [3] deals with collagen in cardiovascular tissues. The experiment in a line: Mass of collagen in cardiovascular tissues after treatment. It counts as in vivo.
Source text: as §1

For a further experiment, the system named is TGFbeta. Briefly: In situ hybridization studies, TGFbeta. The format is in vivo.
Source text: as §1

The next experiment deals with Type IV collagen. Briefly: In situ hybridization studies, Type IV collagen. It counts as in vivo.
Source text: as §1

SMILES strings stand for the structures. Structures can show the parent of a compound that is named as a salt.

On to `Cc1sc[n+](CC(=O)c2ccccc2)c1C` [3-[2-phenyl-2-oxoethyl]-4,5-dimethyl-thiazolium salt], for which, in experiment [1], the “end diastolic pressure (indicator of ventricular elasticity)” value was “returned to a value at about the mid-point between the disease impaired value and the value for control dogs”; the “end diastolic volume (indicator of ventricular elasticity)” value was “returned to a value at about the mid-point between the disease impaired value and the value for control dogs”. Further, the vascular stiffening result in experiment [2] is reported as “substantially ameliorating vascular stiffening”. In addition, the “stiffness of arteries, as measured by the ratio of stroke volume (ml) to pulse pressure (mm Hg)” value in the experiment “Phase IIa clinical trial” (Phase IIa clinical trial) was “showed an ability to reverse the stiffness of arteries”. The “amount of circulating triglycerides (lipids)” value in the experiment “Phase IIa clinical trial” (Phase IIa trial) is recorded as “increased the amount of circulating triglycerides”. The systolic blood pressure entry in the experiment “Phase IIa clinical trial” (Phase IIa trial, believed to be the primary cause of the pulse pressure decrease) is on record as “lowering the systolic blood pressure”. The pulse pressure result in “Phase IIa clinical trial” (Phase IIa trial, elderly patients with pulse pressures greater than 60 mm Hg) was “reduced pulse pressure in elderly patients with pulse pressures greater than 60 mm Hg in a statistically significant manner”. In experiment [3], the “mass of collagen in cardiovascular tissues” value is listed as “reduction in the mass of collagen in cardiovascular tissues”. The “expression of TGFbeta” value in the experiment on TGFbeta was “reduces the expression of both Type IV collagen and TGFbeta”. In the experiment on Type IV collagen, the “expression of Type IV collagen” value is “reduces the expression of both Type IV collagen and TGFbeta”.
